Measurements reported in patent US20110262556A1, “SILVER/WATER, SILVER GELS AND SILVER-BASED COMPOSITIONS; AND METHODS FOR MAKING AND USING THE SAME” (AMERICAN SILVER, LLC, priority 2005, published 2011).

Tests used:
[1] = tested on: Escherichia coli MDR clinical isolate (stool); assay: Antibiotic sensitivity, Kirby Bauer; settings: for Zone size (mm): E.c, Kirby-Bauer antibiotic disc; for resistance of isolate: gram-negative isolate E. coli
E. coil = assay: Zone of inhibition, agar well; settings: E.coli; antibiotic amount (5-200 mcg)
MRSA 1 = assay: Zone of inhibition, agar well; settings: antibiotic amount (1-200 mcg)
[2] = tested on: Pseudomonas aeruginosa MDR clinical isolate (sputum); assay: Antibiotic sensitivity, Kirby Bauer; settings: for resistance of isolate: gram-negative isolate Pseudomonas
S.typhi = assay: Zone of inhibition, agar well; settings: antibiotic amount (5-200 mcg)
S. aureus ATCC 6538 P = assay: Zone of inhibition, agar well; settings: antibiotic amount (1-200 mcg)
MRSA 2 = assay: Zone of inhibition, agar well; settings: antibiotic amount (1-200 mcg)
B. subtilis = assay: Zone of inhibition, agar well; settings: antibiotic amount (1-200 mcg)
S. pneumoniae = assay: MIC/MBC broth microdilution; assay type: cell-based
E. coli = assay: MIC/MBC broth microdilution; assay type: cell-based, Escherichia coli
S. faecalis = assay: MIC/MBC broth microdilution; assay type: cell-based, Streptococcus faecalis
S arizona = assay: MIC/MBC broth microdilution; assay type: cell-based, Salmonella arizona
P. aeruginosa = assay: MIC/MBC broth microdilution; assay type: cell-based, Pseudomonas aeruginosa
K. oxytoca = assay: MIC/MBC broth microdilution; assay type: cell-based; settings: K. oxytoca
S. pyogenes = assay: MIC/MBC broth microdilution; assay type: cell-based, Streptococcus pyogenes
S. mutans = assay: MIC/MBC broth microdilution; assay type: cell-based, Streptococcus mutans
S gordonii = assay: MIC/MBC broth microdilution; assay type: cell-based, Streptococcus gordonii; settings: S gordonii
E. aerogenes = assay: MIC/MBC broth microdilution; assay type: cell-based, Enterobacter aerogenes; settings: E. aerogenes
S. boydii = assay: MIC/MBC broth microdilution; assay type: cell-based, Shigella boydii; settings: S. boydii
E. cloacae = assay: MIC/MBC broth microdilution; assay type: cell-based
S. aureus = assay: MIC/MBC broth microdilution; assay type: cell-based, Staphylococcus aureus
K. pneumoniae = assay: MIC/MBC broth microdilution; assay type: cell-based, Klebsiella pneumoniae
S. typhimurium = assay: MIC/MBC broth microdilution; assay type: cell-based; settings: S. typhimurium
[3] = tested on: MRSA clinical isolate (pus); assay: Antibiotic sensitivity, Kirby Bauer

For NC[C@H]1O[C@H](O[C@H]2[C@H](O)[C@@H](O[C@H]3O[C@H](CO)[C@@H](O)[C@H](N)[C@H]3O)[C@H](N)C[C@@H]2N)[C@H](O)[C@@H](O)[C@@H]1O [kanamycin], the “Zone size (mm)” value [1] was 14 mm.
In the case of CC1(C)S[C@@H]2[C@H](NC(=O)[C@H](N)c3ccccc3)C(=O)N2[C@H]1C(=O)O [Ampicillin], the “zone of inhibition, antibiotics” value (E. coil) is reported as 23 mm, the “zone of inhibition, antibiotics” value (MRSA 1) is reported as 15 mm and the resistance of isolate [2] is reported as “resistance”. For the same compound, the resistance of isolate [1] was “resistance”, the “zone of inhibition, antibiotics” value (S.typhi) was 20 mm and the “zone of inhibition, antibiotics” value (S. aureus ATCC 6538 P) was “Clear”. The “zone of inhibition, antibiotics” value (MRSA 2) was 18 mm.
With CC[C@H]1OC(=O)[C@H](C)[C@@H](O[C@H]2C[C@@](C)(OC)[C@@H](O)[C@H](C)O2)[C@H](C)[C@@H](O[C@@H]2O[C@H](C)C[C@H](N(C)C)[C@H]2O)[C@](C)(O)C[C@@H](C)/C(=N\OCOCCOC)[C@H](C)[C@@H](O)[C@]1(C)O [Roxythromycin] the “zone of inhibition, antibiotics” value (MRSA 1) was 1.0 mm, the “zone of inhibition, antibiotics” value (S. aureus ATCC 6538 P) was “Clear” and the “zone of inhibition, antibiotics” value (B. subtilis) was 20 mm. The “zone of inhibition, antibiotics” value (MRSA 2) was 12 mm.
In the case of CC1(C)S[C@@H]2[C@H](NC(=O)Cc3ccccc3)C(=O)N2[C@H]1C(=O)O [Penicillin G], the MBC (S. pneumoniae) is reported as 0.019/0.019 ppm, the MIC (S. pneumoniae) is reported as 0.019/0.019 ppm and the MIC (E. coli) is reported as greater than 5.0 ppm. For the same compound, the MBC (S. faecalis) was 5.0/>5.0 ppm, the MIC (S. faecalis) was 5.0/>5.0 ppm and the MIC (S arizona) was greater than 5.0 ppm. For the same compound, the MBC (P. aeruginosa) was greater than 5.0 ppm, the MIC (P. aeruginosa) was 0.13 ppm and the MIC (K. oxytoca) was greater than 5.0 ppm. The MIC (S. pyogenes) was greater than 5.0 ppm, the MBC (S. mutans) was greater than 5 ppm and the MIC (S. mutans) was 0.521 ppm. For the same compound, the MBC (S gordonii) was 0.039 ppm, the MIC (S gordonii) was 0.009 ppm and the MIC (E. aerogenes) was greater than 5.0 ppm. It also gave an MIC (S. boydii) greater than 5.0 ppm, an MIC (E. cloacae) greater than 5.0 ppm and an MBC (S. aureus) greater than 5.0 ppm. The MIC (S. aureus) was 2.5 ppm, the MIC (K. pneumoniae) was greater than 5.0 ppm and the MIC (S. typhimurium) was greater than 5.0 ppm.
For CO/N=C(\C(=O)N[C@@H]1C(=O)N2C(C(=O)O)=C(COC(C)=O)CS[C@H]12)c1csc(N)n1 [Cefotaxime], the “zone of inhibition, antibiotics” value (E. coil) was 21 mm, the “zone of inhibition, antibiotics” value (S.typhi) was 22 mm and the “zone of inhibition, antibiotics” value (S. aureus ATCC 6538 P) was 26 mm. For the same compound, the “zone of inhibition, antibiotics” value (MRSA 2) was “-Clear”.
CCN1CCN(C(=O)N[C@@H](C(=O)N[C@@H]2C(=O)N3C(C(=O)O)=C(CSc4nnnn4C)CS[C@H]23)c2ccc(O)cc2)C(=O)C1=O [Cefaperazon] was tested, and the MBC (S. pneumoniae) was 0.313/0.313 ppm, the MIC (S. pneumoniae) was 0.313/0.313 ppm and the MBC (E. coli) was greater than 5.0 ppm. For the same compound, the MIC (E. coli) was 0.625 ppm, the MIC (S. faecalis) was greater than 5.0 ppm and the MBC (S arizona) was greater than 5.0 ppm. It also gave an MIC (S arizona) of 0.833 ppm, an MBC (P. aeruginosa) of 5.0 ppm and an MIC (P. aeruginosa) of 2.5 ppm. The MBC (K. oxytoca) was greater than 5.0 ppm, the MIC (K. oxytoca) was 1.25 ppm and the MBC (S. pyogenes) was 1.25 ppm. The MIC (S. pyogenes) was 0.313 ppm, the MBC (S. mutans) was greater than 5 ppm and the MIC (S. mutans) was 1.25 ppm. The MBC (S gordonii) was 1.25/1.25 ppm, the MIC (S gordonii) was 1.25/1.25 ppm and the MBC (E. aerogenes) was greater than 5.0 ppm. For the same compound, the MIC (E. aerogenes) was 2.92 ppm, the MBC (S. boydii) was 0.625/0.625 ppm and the MIC (S. boydii) was 0.625/0.625 ppm. For the same compound, the MBC (S. aureus) was 5.0/5.0 ppm, the MIC (S. aureus) was 5.0/5.0 ppm and the MIC (K. pneumoniae) was greater than 5.0 ppm. It also gave an MBC (S. typhimurium) of 2.5 ppm and an MIC (S. typhimurium) of 1.25 ppm.
In the case of CCN1CCN(C(=O)N[C@@H](C(=O)N[C@@H]2C(=O)N3[C@@H]2SC(C)(C)[C@@H]3C(=O)O)c2ccccc2)C(=O)C1=O [Piperacillin], the “zone of inhibition, antibiotics” value (E. coil) is reported as 22 mm and the “zone of inhibition, antibiotics” value (S.typhi) is reported as 16 mm.
CC1=C(C(=O)O)N2C(=O)[C@@H](NC(=O)[C@H](N)c3ccccc3)[C@H]2SC1 [Cephalexin] was tested, and the “zone of inhibition, antibiotics” value (MRSA 1) was 1.0 mm, the “zone of inhibition, antibiotics” value (S. aureus ATCC 6538 P) was “Clear” and the “zone of inhibition, antibiotics” value (B. subtilis) was “Clear”. The “zone of inhibition, antibiotics” value (MRSA 2) was 0.8 mm.
In the case of CC(C)(O/N=C(\C(=O)N[C@@H]1C(=O)N2C(C(=O)[O-])=C(C[n+]3ccccc3)CS[C@H]12)c1csc(N)n1)C(=O)O [ceftazidime], the “Zone size (mm)” value ([2]; Ps., Kirby-Bauer antibiotic disc) is reported as 16 mm, the resistance of isolate [2] is reported as “resistance” and the “Zone size (mm)” value [1] is reported as 10 mm. For the same compound, the resistance of isolate [1] was “resistance” and the resistance of isolate [3] was “resistant”.
